Values quoted from earlier work in US9663529B2, “Tricyclic pyrido-carboxamide derivatives as rock inhibitors” (BRISTOL-MYERS SQUIBB COMPANY, priority 2013, dated 2017).

What was measured:
neointimal formation = settings: rats, balloon injury model; cited from earlier work
[1] = system: rat models of hypertension; settings: cited from earlier work
[2] = system: congestive heart failure in Dahl salt-sensitive rats; settings: rat, in vivo; cited from earlier work

## C[C@@H](N)[C@H]1CC[C@H](C(=O)Nc2ccncc2)CC1 [Example Y-27632, Y-27632]
Neointimal formation
  neointimal formation: inhibited neointimal formation
[1]; control rats
  blood pressure in control rats: only a minor effect on blood pressure
[1]; spontaneously hypertensive rat, renal hypertensive rat and deoxycortisone acetate salt hypertensive rat models
  blood pressure: significantly decrease blood pressure
[2]
  ventricular hypertrophy, fibrosis and function: improve ventricular hypertrophy, fibrosis and function
